This note sets out measurements from US20060046976A1, “Method for increasing the bone mineral density and bone micro-architecture or connectivity of a mammal using N-acylated glucosamines” (priority 2004, published 2006).

The test system of one assay is ovariectomised rats. Description: Femoral and spine BMD by DXA in ovariectomised rats fed GlcNBu. It is filed as in vivo, rat. Particulars: 200 mg GlcNBu by mouth daily, 6 months. The text has this: This investigation was designed to test the effects of GlcNBu on the BMD of the femurs in an ovariectomised rat model. The experiments performed are described as follows.
FIGS. 1A and 1B show the effect of GlcNBu feeding on femoral BMD with time, over six months, in the ovariectomized rat. Both the top and bottom panels show the mean total designated herein as global BMD of the femurs for the 8 animals in each group, with time. The actual BMD values are shown on the vertical axes. FIG. 1A Glc-O represents the data from the ovariectomised rats fed with glucose and FIG. 1B GlcNBu-O represents data from the ovariectomised rats fed with GlcNBu. The sequential DXA scans for estimating BMD at times 0, 2 months, 4 months and 6 months are illustrated on the horizontal axis and designated as Sequential Scan number 1.0, 2.0. 3.0 and 4.0, respectively.
Sixteen ovariectomised rats (Charles River Laboratories), approximately 200 g in weight, were randomized into two groups. The control group received 200 mg of glucose, by mouth as single daily doses and the GlcNBu-treated group received 200 mg of GlcNBu by mouth, as single daily doses, for a total period of six (6) months. A similar group of non-ovariectomised animals was fed with GlcNBu or glucose at the same doses. […] Consistent position of the femurs was assured with a pre-determined grid. […]

For assay [1], the system named is non-ovariectomised animals. Description: BMD by DXA in non-ovariectomised rats fed GlcNBu. It is filed as in vivo, rat. The note with it: 200 mg GlcNBu daily, not statistically significant, data not shown. On the procedure: (§1) Sixteen ovariectomised rats (Charles River Laboratories), approximately 200 g in weight, were randomized into two groups. The control group received 200 mg of glucose, by mouth as single daily doses and the GlcNBu-treated group received 200 mg of GlcNBu by mouth, as single daily doses, for a total period of six (6) months. A similar group of non-ovariectomised animals was fed with GlcNBu or glucose at the same doses. The feeding of the compounds was done in small amounts of peanut butter which was very acceptable to the rats, which were allowed free access to water and rat chow. The animals had the BMDs of the femurs (total or global BMD) and the lumbar spines were estimated at baseline and then at, approximately 2, 4 and 6 months. Consistent position of the femurs was assured with a pre-determined grid. A Hologic 4500 DXA machine, with small animal software, was employed for the study. The animals were lightly anesthetized for each measurement.

Assay [2] has as its system non-ovariectomised animals. The experiment in a line: Wet weight of femurs, non-ovariectomised rats. It is filed as in vivo, rat. Particulars: oral feeding of GlcNBu, 6 months. The method, then: as §1
(§2) At the end of the experiment, the animals were sacrificed, plasma was collected by cardiac puncture, and the femurs removed, fully dissected from adherent tissue and the wet weight was determined. The concentrations of Insulin-like Growth factor I (IGF-1) in the plasma, obtained at the end of the experiment, were determined by a commercial immunological method.

In assay [3] the test system is Insulin-like Growth factor I (IGF-1). The experiment in a line: Plasma IGF-1 concentration by commercial immunological method. It is filed as in vivo, rat. Particulars: end of 6 months; ovariectomised GlcNBu fed rats compared to GlcNBu fed non-ovariectomised rats; p=0.044. On the procedure: as §1, §2
Another assay deals with SCW-arthritis rats. Description: Three-dimensional isosurface of tibia (bone erosion), SCW-arthritis rats. It is filed as in vivo, Lewis type rats. The note with it: GlcNBu treated, especially high dose. An excerpt: In this experiment performed and described herein, there were four groups of Lewis type rats, consisting of eight (8) animals in each group. Lewis type rats had experimental arthritis induced by a single intra-peritoneal injection of streptococcal cell wall antigen (SCW). This type of arthritis has an acute and chronic phase and affects mostly the distal joints in the hind limbs of the animals, and, less so, the knees and hips. Groups 1-3, inclusive, had inflammatory arthritis induced. The compound used in the experiment was used to supplement normal rat chow feed on a daily basis. Feed and water were unrestricted. […] All the dissected femurs and tibiae were scanned with dual energy x-ray absorptiometry (DXA) were measured at the distal femur, and proximal tibia using a user defined region of interest (ROI). • Micro-CT imaging protocol. […] The reconstructed tibia images were analyzed with MicroView 2.0 software (GE Healthcare, London, ON) in two and three dimensions. • Three-dimensional trabecular bone measurements. […] On 3D analysis, the tissue volume (3D-TV, mm3) and trabecular bone volume (3D-BV, mm3) were measured directly, and the fractional trabecular bone volume (3D-BV/TV, %) was calculated. […]

Each structure is given as a SMILES string.

In the case of `CCCC(=O)N[C@H]1C(O)O[C@H](CO)[C@@H](O)[C@@H]1O` (stereo partly drawn) [GlcNBu, N-butyryl-D-glucosamine], in the assay with ovariectomised rats (data not shown), the “BMD of the spines vs glucose-fed” value is “the differences were not reach statistical significance”. The “femoral BMD (global) plateau vs control (glucose-fed) rats” value with ovariectomised rats (plateau after 4 months, p<0.05) is on record as “significantly higher”. Further, in assay [1], the “BMD at the sites measured vs glucose-fed animals” value is on record as “higher trends in the BMD”. In assay [2], the femoral wet weight result was “increases femoral wet weight”. Moreover, the “plasma IGF-1 concentration” value in assay [3] is listed as “significant difference”. Further, the “bone erosion at the joint margin (isosurfaces)” value with SCW-arthritis rats is reported as “effectively protects bone from further erosion”.
